# In ChEMBL document CHEMBL3885881, “DrugMatrix”:
# Species on record: Rattus norvegicus
# Experiment: DrugMatrix - Regimen: Daily Repeat
# Type: toxicity, organism-based, Sprague-Dawley
# Parameters: regimen Daily Repeat, gender Male, age 6-8 weeks
# Conditions: in vivo, sc, 4 mg/kg, route subcutaneous, dose level High, […]; for ABSOLUTE BASOPHIL / ABSOLUTE EOSINOPHIL / ABSOLUTE LYMPHOCYTE / ABSOLUTE MONOCYTE / ABSOLUTE SEGMENTED NEUTROPHIL / BASOPHIL / EOSINOPHIL / ERYTHROCYTE COUNT / HEMATOCRIT / HEMOGLOBIN / LEUKOCYTE COUNT / LYMPHOCYTE / MEAN CORPUSCULAR HEMOGLOBIN / MEAN CORPUSCULAR HEMOGLOBIN CONCENTRATION / MEAN CORPUSCULAR VOLUME / MONOCYTE / NEUTROPHIL / NUCLEATED RED BLOOD CELLS / PLATELET COUNT: tissue Blood; for ALANINE AMINOTRANSFERASE / ALBUMIN / ALKALINE PHOSPHATASE / ASPARTATE AMINOTRANSFERASE / BLOOD UREA NITROGEN / CARBON DIOXIDE / CHLORIDE / CHOLESTEROL / CREATINE PHOSPHOKINASE / CREATININE / GLUCOSE / LACTATE DEHYDROGENASE / LIPASE / PHOSPHORUS / POTASSIUM / SODIUM / TOTAL BILIRUBIN / TOTAL PROTEIN / URIC ACID: tissue Plasma
compound,measurement,setting,value
COc1cc([C@@H]2c3cc4c(cc3[C@H](O)[C@H]3COC(=O)[C@H]23)OCO4)cc(OC)c1OC [PODOFILOX],ABSOLUTE BASOPHIL,"72 h, time 3 day",0 CELLS/uL
same,ABSOLUTE EOSINOPHIL,"72 h, time 3 day",70.67 CELLS/uL
same,ABSOLUTE LYMPHOCYTE,"72 h, time 3 day",10536.33 CELLS/uL
same,ABSOLUTE MONOCYTE,"72 h, time 3 day",257.67 CELLS/uL
same,ABSOLUTE SEGMENTED NEUTROPHIL,"72 h, time 3 day",768.67 CELLS/uL
same,BASOPHIL,"72 h, time 3 day",0%
same,EOSINOPHIL,"72 h, time 3 day",0.67%
same,ERYTHROCYTE COUNT,"72 h, time 3 day",4.67 x10E6/uL
same,HEMATOCRIT,"72 h, time 3 day",29.03%
same,HEMOGLOBIN,"72 h, time 3 day",11 G/DL
same,LEUKOCYTE COUNT,"72 h, time 3 day",11.63 x10E3/uL
same,LYMPHOCYTE,"72 h, time 3 day",90.33%
same,MEAN CORPUSCULAR HEMOGLOBIN,"72 h, time 3 day",23.63 pg
same,MEAN CORPUSCULAR HEMOGLOBIN CONCENTRATION,"72 h, time 3 day",37.93 G/DL
same,MEAN CORPUSCULAR VOLUME,"72 h, time 3 day",62.43 fL
same,MONOCYTE,"72 h, time 3 day",2.33%
same,NEUTROPHIL,"72 h, time 3 day",6.67%
same,NUCLEATED RED BLOOD CELLS,"72 h, time 3 day",0.67 /100WBC
same,PLATELET COUNT,"72 h, time 3 day",1479.33 x10E3/uL
same,ALANINE AMINOTRANSFERASE,"72 h, time 3 day",36 u/L
same,ALBUMIN,"72 h, time 3 day",3.27 G/DL
same,ALKALINE PHOSPHATASE,"72 h, time 3 day",238.33 u/L
same,ASPARTATE AMINOTRANSFERASE,"72 h, time 3 day",81 u/L
same,BLOOD UREA NITROGEN,"72 h, time 3 day",15.33 mg/dL
same,CARBON DIOXIDE,"72 h, time 3 day",22.67 mmol/L
same,CHLORIDE,"72 h, time 3 day",105.67 MEQ/L
same,CHOLESTEROL,"72 h, time 3 day",61 mg/dL
same,CREATINE PHOSPHOKINASE,"72 h, time 3 day",371.33 u/L
same,CREATININE,"72 h, time 3 day",0.17 mg/dL
same,GLUCOSE,"72 h, time 3 day",145 mg/dL
same,LACTATE DEHYDROGENASE,"72 h, time 3 day",371.33 u/L
same,LIPASE,"72 h, time 3 day",7.67 u/L
same,PHOSPHORUS,"72 h, time 3 day",9.1 mg/dL
same,POTASSIUM,"72 h, time 3 day",6.96 MEQ/L
same,SODIUM,"72 h, time 3 day",144.97 MEQ/L
same,TOTAL BILIRUBIN,"72 h, time 3 day",0.17 mg/dL
same,TOTAL PROTEIN,"72 h, time 3 day",5.3 G/DL
same,URIC ACID,"72 h, time 3 day",1.73 mg/dL
same,ABSOLUTE BASOPHIL,"120 h, time 5 day",0 CELLS/uL
same,ABSOLUTE EOSINOPHIL,"120 h, time 5 day",0 CELLS/uL
same,ABSOLUTE LYMPHOCYTE,"120 h, time 5 day",6143.67 CELLS/uL
same,ABSOLUTE MONOCYTE,"120 h, time 5 day",159 CELLS/uL
same,ABSOLUTE SEGMENTED NEUTROPHIL,"120 h, time 5 day",330.67 CELLS/uL
same,BASOPHIL,"120 h, time 5 day",0%
same,EOSINOPHIL,"120 h, time 5 day",0%
same,ERYTHROCYTE COUNT,"120 h, time 5 day",5.45 x10E6/uL
same,HEMATOCRIT,"120 h, time 5 day",32.83%
same,HEMOGLOBIN,"120 h, time 5 day",12.27 G/DL
same,LEUKOCYTE COUNT,"120 h, time 5 day",6.63 x10E3/uL
same,LYMPHOCYTE,"120 h, time 5 day",93%
same,MEAN CORPUSCULAR HEMOGLOBIN,"120 h, time 5 day",22.5 pg
same,MEAN CORPUSCULAR HEMOGLOBIN CONCENTRATION,"120 h, time 5 day",37.37 G/DL
same,MEAN CORPUSCULAR VOLUME,"120 h, time 5 day",60.13 fL
same,MONOCYTE,"120 h, time 5 day",2.33%
same,NEUTROPHIL,"120 h, time 5 day",4.67%
same,NUCLEATED RED BLOOD CELLS,"120 h, time 5 day",0 /100WBC
same,PLATELET COUNT,"120 h, time 5 day",878 x10E3/uL
same,ALANINE AMINOTRANSFERASE,"120 h, time 5 day",45.67 u/L
same,ALBUMIN,"120 h, time 5 day",3.57 G/DL
same,ALKALINE PHOSPHATASE,"120 h, time 5 day",214.33 u/L
same,ASPARTATE AMINOTRANSFERASE,"120 h, time 5 day",96.33 u/L
same,BLOOD UREA NITROGEN,"120 h, time 5 day",18 mg/dL
same,CARBON DIOXIDE,"120 h, time 5 day",26.5 mmol/L
same,CHLORIDE,"120 h, time 5 day",104.5 MEQ/L
same,CHOLESTEROL,"120 h, time 5 day",69.5 mg/dL
same,CREATINE PHOSPHOKINASE,"120 h, time 5 day",269.67 u/L
same,CREATININE,"120 h, time 5 day",0.18 mg/dL
same,GLUCOSE,"120 h, time 5 day",163 mg/dL
same,LACTATE DEHYDROGENASE,"120 h, time 5 day",182.67 u/L
same,LIPASE,"120 h, time 5 day",8 u/L
same,PHOSPHORUS,"120 h, time 5 day",11.1 mg/dL
same,POTASSIUM,"120 h, time 5 day",5.69 MEQ/L
same,SODIUM,"120 h, time 5 day",146.25 MEQ/L
same,TOTAL BILIRUBIN,"120 h, time 5 day",0.1 mg/dL
same,TOTAL PROTEIN,"120 h, time 5 day",5.8 G/DL
same,URIC ACID,"120 h, time 5 day",1.35 mg/dL
